Among the data in PubChem BioAssay (NCI) are TGI values, retold here.

SMILES strings stand for the structures.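 Results reflect a 48-hour exposure of cells in 96-well plates to compound at five concentrations. TGI: concentration producing complete growth inhibition.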

Some test systems named below: SR leukemia; HL-60(TB) leukemia; OVCAR-3 ovarian; SN12C renal; HOP-92 NSCLC; NCI/ADR-RES ovarian; M14 melanoma; KM12 colon; SK-MEL-2 melanoma; MCF7 breast.
Common to all, as to test: NCI tumour cell line growth inhibition, 48 h

As to `COc1cc(/C=C2\CCC(CN(C)C)C2=O)ccc1OC(=O)c1ccccc1` (stereo not given), the TGI in the test on SR leukemia came to 6.97 µM; in the test on HL-60(TB) leukemia it was 8.71 µM; with OVCAR-3 ovarian, 21.3 µM; in the test with SN12C renal, 25.1 µM; with HOP-92 NSCLC, 32.6 µM; with NCI/ADR-RES ovarian it was 48.7 µM. The TGI with M14 melanoma is 22.9 µM; in the test with KM12 colon it was 13.7 µM; in the test on SK-MEL-2 melanoma it was 32.7 µM; in the test on MCF7 breast, 21 µM.
With `NC(=O)c1ccc2c(c1)S(=O)(=O)c1ccccc1C2=O`, the TGI in the test on SR leukemia, in the test with HL-60(TB) leukemia, in the test on OVCAR-3 ovarian, in the test with SN12C renal, in the test on HOP-92 NSCLC and in the test with NCI/ADR-RES ovarian was over 100 µM throughout. The TGI in the test on M14 melanoma, with KM12 colon, in the test on SK-MEL-2 melanoma and in the test on MCF7 breast was over 100 µM each time.
On to `CCOC(=O)/C=C(\C(=O)OCC)n1ccc(N)nc1=O`, for which the TGI in the test with SR leukemia, with HL-60(TB) leukemia, in the test on OVCAR-3 ovarian, with SN12C renal, with HOP-92 NSCLC and in the test on NCI/ADR-RES ovarian was over 100 µM each time. The TGI in the test on M14 melanoma, with KM12 colon, in the test with SK-MEL-2 melanoma and in the test with MCF7 breast was over 100 µM each time.
Take `O=C1C=C(Br)c2c(Br)sc(Br)c21`: the TGI in the test with SR leukemia was over 100 µM; in the test on HL-60(TB) leukemia, 29.2 µM; in the test on OVCAR-3 ovarian, 31.4 µM; with SN12C renal, 38.3 µM; with HOP-92 NSCLC it was 7.64 µM; with NCI/ADR-RES ovarian, over 53.8 µM. Further, the TGI came out at 15 µM in the test with M14 melanoma, 37.3 µM in the test with KM12 colon, 49.3 µM in the test on SK-MEL-2 melanoma and 17.4 µM in the test with MCF7 breast.
With `CN(NC(=O)CCCl)C1=NCCCCN1`, the TGI with SR leukemia, with HL-60(TB) leukemia, in the test on OVCAR-3 ovarian, with SN12C renal, in the test with HOP-92 NSCLC and in the test on NCI/ADR-RES ovarian was over 100 µM throughout. For the same compound, the TGI in the test on M14 melanoma, with KM12 colon, in the test with SK-MEL-2 melanoma and with MCF7 breast was over 100 µM throughout.
As for `O=S1(=O)c2ccccc2C(=NO)c2ccccc21`, the TGI was over 100 µM in the test with SR leukemia; 36.2 µM in the test with HL-60(TB) leukemia; over 100 µM in the test on OVCAR-3 ovarian; over 100 µM in the test on SN12C renal; over 100 µM in the test on HOP-92 NSCLC; over 100 µM in the test on NCI/ADR-RES ovarian. Further, the TGI in the test with M14 melanoma, in the test on KM12 colon, in the test on SK-MEL-2 melanoma and in the test on MCF7 breast was over 100 µM in each case.
`C(=C\c1ccccc1)/C=N/c1nc2cc3sc(/N=C/C=C/c4ccccc4)nc3cc2s1`: the TGI in the test with SR leukemia is 32.4 µM; in the test with HL-60(TB) leukemia it was over 100 µM; in the test with OVCAR-3 ovarian it was over 100 µM; in the test with SN12C renal, over 100 µM; with HOP-92 NSCLC, over 100 µM; in the test on NCI/ADR-RES ovarian, over 100 µM. Further, the TGI in the test on M14 melanoma, in the test on KM12 colon, with SK-MEL-2 melanoma and with MCF7 breast was over 100 µM throughout.
`[N-]=[N+]=NCc1cccc(Nc2cc(=O)[nH]c(=O)[nH]2)c1`: the TGI in the test with SR leukemia, in the test on HL-60(TB) leukemia, in the test on OVCAR-3 ovarian, with SN12C renal, in the test on HOP-92 NSCLC and in the test on NCI/ADR-RES ovarian was over 100 µM each time. The TGI in the test on M14 melanoma, in the test with KM12 colon, with SK-MEL-2 melanoma and with MCF7 breast was over 100 µM each time.
For the compound `Cc1sc(/N=C/c2c[nH]c3ccccc23)c(C#N)c1C`, the TGI in the test on SR leukemia is over 100 µM; in the test on HL-60(TB) leukemia it was over 100 µM; in the test on OVCAR-3 ovarian it was 66.1 µM; in the test with SN12C renal, over 100 µM; with HOP-92 NSCLC, over 100 µM; in the test with NCI/ADR-RES ovarian it was over 100 µM. Further, the TGI in the test on M14 melanoma, in the test on KM12 colon, in the test on SK-MEL-2 melanoma and in the test on MCF7 breast was over 100 µM throughout.
Consider `C=CCSC1=N/C(=C\c2ccccc2)C(=O)N1CC=C`, for which the TGI in the test on SR leukemia was over 61.6 µM; in the test on HL-60(TB) leukemia, 18.7 µM; in the test on OVCAR-3 ovarian, over 93.9 µM; in the test on SN12C renal, over 100 µM; in the test on HOP-92 NSCLC, over 78.1 µM; with NCI/ADR-RES ovarian, over 100 µM. In addition, the TGI is over 100 µM with M14 melanoma, over 100 µM in the test with KM12 colon, 97.6 µM in the test with SK-MEL-2 melanoma and over 100 µM with MCF7 breast.
In the case of `Cc1nc2ccc(S(=O)(=O)O)cc2c(=O)n1-c1ccc(C(=O)NN2C(=O)C(Cl)C2c2ccccc2O)cc1` (stereo not given), the TGI in the test with SR leukemia, in the test on HL-60(TB) leukemia, with OVCAR-3 ovarian, in the test on SN12C renal, in the test with HOP-92 NSCLC and in the test with NCI/ADR-RES ovarian was over 100 µM in each case. For the same compound, the TGI in the test on M14 melanoma, in the test on KM12 colon, in the test with SK-MEL-2 melanoma and with MCF7 breast was over 100 µM in each case.
